# Source: patent US12441742B2, “Naphthyridine compounds as inhibitors of KRAS” (Incyte Corporation, priority 2021, dated 2025)
# What was measured:
# KRAS G12D [1] = molecular target: T1, KRAS G12D (Homo sapiens, UniProt P01116, G12D); assay: KRAS_G12D GDP-GTP exchange assay (bodipy-GDP/GppNHp, SOS1); assay type: biochemical; settings: bodipy-loaded KRAS G12D 2.5 nM, 4 hours pre-incubation, 2 hours exchange
# Protocol: (§1) The inhibitor potency of the exemplified compounds was determined in a fluorescence based guanine nucleotide exchange assay, which measures the exchange of bodipy-GDP (fluorescently labeled GDP) for GppNHp (Non-hydrolyzable GTP analog) to generate the active state of KRAS in the presence of SOS1 (guanine nucleotide exchange factor). Inhibitors were serially diluted in DMSO and a volume of 0.1 μL was transferred to the wells of a black low volume 384-well plate. 5 μL/well volume of bodipy-loaded KRAS G12D diluted to 2.5 nM in assay buffer (25 mM Hepes pH 7.5, 50 mM NaCl, 10 mM MgCl2 and 0.01% Brij-35) was added to the plate and pre-incubated with inhibitor for 4 hours at ambient temperature. Appropriate controls (enzyme with no inhibitor or with a G12D inhibitor) were included on the plate. The exchange was initiated by the addition of a 5 μL/well volume containing 1 mM GppNHp and 300 nM SOS1 in assay buffer. The 10 μL/well reaction concentration of the bodipy-loaded KRAS G12D, GppNHp, and SOS1 were 2.5 nM, 500 uM, and 150 nM, respectively. The reaction plates were incubated at ambient temperature for 2 hours, a time estimated for complete GDP-GTP exchange in the absence of inhibitor. For the KRAS G12V mutant, similar guanine nucleotide exchange assays were used with 2.5 nM as final concentration for the bodipy loaded KRAS proteins and 3 hours incubation after adding GppNHp-SOS1 mixture. A cyclic peptide described to selectively bind G12D mutant (Sakamoto et al., BBRC 484.3 (2017), 605-611) or internal compounds with confirmed binding were used as positive controls in the assay plates. Fluorescence intensities were measured on a PheraStar plate reader instrument (BMG Labtech) with excitation at 485 nm and emission at 520 nm.
# (§2) Either GraphPad prism or XLfit was used to analyze the data. The IC50 values were derived by fitting the data to a four parameter logistic equation producing a sigmoidal dose-response curve with a variable Hill coefficient. Prism equation: Y=Bottom+(Top−Bottom)/(1+10^((Log IC50−X)*Hill slope)); XLfit equation: Y=(A+((B−A)/(1+((X/C)^D)))) where X is the logarithm of inhibitor concentration and Y is the response.
# KRAS G12V [2] = molecular target: T2, KRAS G12V (Homo sapiens, UniProt P01116, G12V); assay: KRAS_G12V GDP-GTP exchange assay (bodipy-GDP/GppNHp, SOS1); assay type: biochemical; settings: bodipy loaded KRAS G12V 2.5 nM, 3 hours incubation after GppNHp-SOS1; read-out: G12V_exchange (KRAS_G12V exchange assay IC50)
# Protocol: as §1, §2
# KRAS G12V [3] = molecular target: T2, KRAS G12V; assay: KRAS_G12V pERK assay; assay type: cell-based; settings: read-out: G12V_pERK (KRAS_G12V pERK assay IC50)
# KRAS G12D [4] = molecular target: T1, KRAS G12D; assay: KRAS_G12D cellular pERK HTRF assay; assay type: cell-based; parameters: CRL-1997; host or cells: A427 or HPAF-II; settings: KRAS G12D cells (A427, HPAF-II), 2 hours; for IC50: read-out: G12D_pERK (KRAS_G12D pERK assay IC50)
# Protocol: MIA PaCa-2 (KRAS G12C; ATCC® CRL-1420), A427 (KRAS G12D; ATCC® HTB53), HPAF-II (KRAS G12D; ATCC® CRL-1997) and NCI-H838 (KRAS WT; ATCC® CRL-5844) cells are purchased from ATCC and maintained in RPMI 1640 media supplemented with 10% FBS (Gibco/Life Technologies). The cells are plated at 5000 cells per well (8 uL) into Greiner 384-well low volume, flat-bottom, tissue culture treated white plates and incubated overnight at 37° C., 5% CO2. The next morning, test compound stock solutions are diluted in media at 3x the final concentration, and 4 uL are added to the cells. The plate is mixed by gentle rotation for 30 seconds (250 rpm) at room temperature. The cells are incubated with the KRAS G12C and G12D compounds for 4 hours or 2 hours respectively at 37° C., 5% CO2.
# 4 uL of 4x lysis buffer with blocking reagent (1:25) (Cisbio) are added to each well and plates are rotated gently (300 rpm) for 30 minutes at room temperature. 4 uL per well of Cisbio anti Phospho-ERK 1/2 d2 is mixed with anti Phospho-ERK 1/2 Cryptate (1:1) are added to each well, mixed by rotation and incubated overnight in the dark at room temperature. Plates are read on the Pherastar plate reader at 665 nm and 620 nm wavelengths. IC50 determination is performed by fitting the curve of inhibitor percent inhibition versus the log of the inhibitor concentration using the GraphPad Prism 7 software.
# T1 sequence (P01116 1-188 isoform P01116-2 G12D): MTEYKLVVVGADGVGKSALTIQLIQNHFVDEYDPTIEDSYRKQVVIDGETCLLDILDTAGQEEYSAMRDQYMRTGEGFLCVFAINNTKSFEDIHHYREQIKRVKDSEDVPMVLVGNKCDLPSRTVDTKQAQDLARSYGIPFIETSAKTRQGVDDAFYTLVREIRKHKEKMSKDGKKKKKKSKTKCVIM
# T2 sequence (P01116 1-188 isoform P01116-2 G12V): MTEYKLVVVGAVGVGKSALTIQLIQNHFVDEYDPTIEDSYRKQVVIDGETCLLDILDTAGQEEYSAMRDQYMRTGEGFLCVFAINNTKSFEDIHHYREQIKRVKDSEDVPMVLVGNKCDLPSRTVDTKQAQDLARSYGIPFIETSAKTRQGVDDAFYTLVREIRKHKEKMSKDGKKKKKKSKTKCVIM
Compound,G12D_exchange (KRAS_G12D exchange assay IC50) (KRAS G12D [1]),IC50 (KRAS G12V [2]) [nM],IC50 (KRAS G12V [3]) [nM],IC50 (KRAS G12D [4]) [nM],G12D_pERK (KRAS_G12D pERK assay IC50) (KRAS G12D [4]),IC50 (KRAS G12D [1]; read-out: G12D_exchange (KRAS_G12D exchange assay IC50)) [nM]
"Cc1cc2c(OCC34CCCN3CCC4)nc3c(F)c(-c4cc(O)cc5ccccc45)ncc3c2n1[C@@H]1[C@@H]2CN[C@H]1C2 (relative stereo) [Example 4, 4-(1-((endo)-2-azabicyclo[2.1.1]hexan-5-yl)-6-fluoro-2-methyl-4-((tetrahydro-1H-pyrrolizin-7a(5H)-yl)methoxy)-1H-pyrrolo[3,2-c][1,6]naphthyridin-7-yl)naphthalen-2-ol]",†,≤ 100,1000 to 5000,100 to 1000,,
"COC(=O)CCc1cc2c(OC[C@@]34CCCN3C[C@H](F)C4)nc3c(F)c(-c4cc(O)cc5ccccc45)ncc3c2n1C1C2CNC1C2 (single isomer, unassigned) [Example 2a]",†,100 to 1000,,1000 to 5000,,
"C[C@H](Oc1nc2c(F)c(N3CCCc4ccccc43)ncc2c2c1cc(CN1CCOC1=O)n2C1C2CNC1C2)[C@@H]1CCCN1C (single isomer, unassigned) [Example 7a]",†,100 to 1000,,1000 to 5000,,
"CN(C)C(=O)CCc1nc2c(N3CC(N(C)C)C3)nc3cc(-c4cc(O)cc5ccccc45)c(CCC#N)nc3c2n1C1C2CNC1C2 (single isomer, unassigned) [Example 17b, 3-(1-((endo)-2-azabicyclo[2.1.1]hexan-5-yl)-8-(2-cyanoethyl)-4-(3-(dimethylamino)azetidin-1-yl)-7-(3-hydroxynaphthalen-1-yl)-1H-imidazo[4,5-c][1,5]naphthyridin-2-yl)-N,N-dimethylpropanamide]",†,1000 to 5000,,5000 to 10000,,
"C[C@H](Oc1nc2c(F)c(-c3cccc4c3OCCC4)ncc2c2c1cc(C1CC[C@H]3COC(=O)N13)n2[C@H]1[C@H]2CN[C@@H]1C2)[C@@H]1CCCN1C (single isomer, unassigned) [Example 26a]",†,≤ 100,1000 to 5000,,†,
"C[C@H](Oc1nc2c(F)c(-c3cccc4c3OCCC4)ncc2c2c1cc(C1CC[C@H]3COC(=O)N13)n2[C@H]1[C@H]2CN[C@@H]1C2)[C@@H]1CCCN1C (single isomer, unassigned) [Example 26b]",,100 to 1000,,1000 to 5000,,100 to 1000
"COC(=O)N1CCC[C@@H]1c1cc2c(O[C@@H](C)CN3CCCC3)nc3c(F)c(-c4cccc5scnc45)ncc3c2n1[C@H]1[C@H]2CN[C@@H]1C2 [Example 25, methyl (R)-2-(7-(benzo[d]thiazol-4-yl)-1-((1R,4R,5S)-2-azabicyclo[2.1.1]hexan-5-yl)-6-fluoro-4-(((S)-1-(pyrrolidin-1-yl)propan-2-yl)oxy)-1H-pyrrolo[3,2-c][1,6]naphthyridin-2-yl)pyrrolidine-1-carboxylate]",†,100 to 1000,1000 to 5000,,†,
"C[C@H](Oc1nc2c(F)c(-c3cccc4c3OCCC4)ncc2c2c1cc(-c1cn(C)nc1C(=O)N(C)C)n2[C@H]1[C@H]2CN[C@@H]1C2)[C@@H]1CCCN1C [Example 27, 4-(1-((1R,4R,5S)-2-azabicyclo[2.1.1]hexan-5-yl)-7-(chroman-8-yl)-6-fluoro-4-((S)-1-((S)-1-methylpyrrolidin-2-yl)ethoxy)-1H-pyrrolo[3,2-c][1,6]naphthyridin-2-yl)-N,N,1-trimethyl-1H-pyrazole-3-carboxamide]",†,≤ 100,1000 to 5000,1000 to 5000,,

# Second part, the compound after the results:
G12D_exchange (KRAS_G12D exchange assay IC50) (KRAS G12D [1]),IC50 (KRAS G12V [2]) [nM],IC50 (KRAS G12V [3]) [nM],IC50 (KRAS G12D [4]) [nM],G12D_pERK (KRAS_G12D pERK assay IC50) (KRAS G12D [4]),IC50 (KRAS G12D [1]; read-out: G12D_exchange (KRAS_G12D exchange assay IC50)) [nM],Compound
†,≤ 100,1000 to 5000,,†,,"COC(=O)CCc1cc2c(O[C@@H](C)[C@@H]3CCCN3C)nc3c(F)c(-c4cc(O)cc5ccccc45)ncc3c2n1C1C2CNC1C2 (single isomer, unassigned) [Example 1a]"
†,≤ 100,100 to 1000,,,,"COC(=O)CCc1cc2c(O[C@@H](C)[C@@H]3CCCN3C)nc3c(F)c(-c4cc(O)cc5ccccc45)ncc3c2n1C1C2CNC1C2 (single isomer, unassigned) [Example 1b]"
†,≤ 100,5000 to 10000,100 to 1000,,,"COC(=O)CCc1cc2c(OC[C@@]34CCCN3C[C@H](F)C4)nc3c(F)c(-c4cc(O)cc5ccccc45)ncc3c2n1C1C2CNC1C2 (single isomer, unassigned) [Example 2b]"
†,≤ 100,100 to 1000,,†,,"Cc1cc2c(O[C@@H](C)[C@@H]3CCCN3C)nc3c(F)c(-c4cc(O)cc5ccccc45)ncc3c2n1C1C2CNC1C2 (single isomer, unassigned) [Example 3a]"
†,100 to 1000,5000 to 10000,100 to 1000,,,"Cc1cc2c(O[C@@H](C)[C@@H]3CCCN3C)nc3c(F)c(-c4cc(O)cc5ccccc45)ncc3c2n1C1C2CNC1C2 (single isomer, unassigned) [Example 3b]"
†,≤ 100,,1000 to 5000,,,"C[C@H](Oc1nc2c(F)c(-c3cc(O)cc4ccccc34)ncc2c2c1nc(CCC(=O)N(C)C)n2C1C2CNC1C2)[C@@H]1CCCN1C (single isomer, unassigned) [Example 9a]"
